Molecular target: T1, GlyT2 (wtGlyT2) (Rattus norvegicus, UniProt P58295)
T1 sequence (P58295 1-799): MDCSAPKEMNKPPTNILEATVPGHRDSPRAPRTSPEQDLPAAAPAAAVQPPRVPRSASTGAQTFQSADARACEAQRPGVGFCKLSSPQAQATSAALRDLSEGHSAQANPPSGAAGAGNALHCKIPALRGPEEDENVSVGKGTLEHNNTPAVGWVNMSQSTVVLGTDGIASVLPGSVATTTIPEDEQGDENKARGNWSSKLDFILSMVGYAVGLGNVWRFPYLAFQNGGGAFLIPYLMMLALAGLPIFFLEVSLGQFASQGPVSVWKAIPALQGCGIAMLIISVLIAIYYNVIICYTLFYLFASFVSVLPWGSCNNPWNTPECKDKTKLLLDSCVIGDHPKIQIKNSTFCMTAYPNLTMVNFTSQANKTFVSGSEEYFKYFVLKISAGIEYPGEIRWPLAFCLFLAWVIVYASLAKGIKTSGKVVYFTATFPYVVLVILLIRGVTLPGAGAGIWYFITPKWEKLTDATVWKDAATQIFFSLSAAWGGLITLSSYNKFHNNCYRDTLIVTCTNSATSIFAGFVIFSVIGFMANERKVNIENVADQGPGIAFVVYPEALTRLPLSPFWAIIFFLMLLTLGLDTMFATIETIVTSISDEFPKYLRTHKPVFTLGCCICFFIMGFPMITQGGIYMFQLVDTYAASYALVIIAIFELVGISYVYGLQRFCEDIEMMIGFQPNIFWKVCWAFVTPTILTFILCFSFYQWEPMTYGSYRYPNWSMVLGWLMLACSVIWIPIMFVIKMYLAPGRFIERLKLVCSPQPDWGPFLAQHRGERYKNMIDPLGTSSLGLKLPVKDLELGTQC
Assay: [3H]glycine uptake inhibition in transfected COS7 cells
Format: cell-based

`CCCCC/C=C\C/C=C\C/C=C\C/C=C\CCCC(=O)NCC(=O)O` [N-arachidonoyl glycine] was tested, and the IC50 was 67 ± 23 µM.
